Data on one molecule can be found in patent US7345083B2, “Hydroisoindoline tachykinin receptor antagonists” (Merck & Co., Inc., priority 2004, dated 2008).

One may read the melting point as the temperature of the solid-liquid transition. With `C[C@@H](O[C@H]1CC[C@@H]2CN(C3=CC(=O)CC3)C[C@H]2[C@@H]1c1ccc(F)cc1)c1cc(C(F)(F)F)cc(C(F)(F)F)c1` [Example 7, 3-[(3aR,4R,5S,7aS)-5-{(1R)-1-[3,5-bis(Trifluoromethyl)phenyl]ethoxy}-4-(4-fluorophenyl)-octahydro-2H-isoindol-2-yl]cyclopent-2-en-1-one], the melting point lay in the range of 216.5 to 217.5 °C.
